Assay: xn = mol fraction of the nth substance listed
Details: 101.3 kPa, Liquid; for mass density: Pycnometric method

CCCCCCCCCCCCCCCC [hexadecane] + CCCCCC
Details	mass density [kg/m3]	speed of sound [m/s]
293.15 K, x2 = 0.1	768.1	1341
293.15 K, x2 = 0.2	762.36	1327
293.15 K, x2 = 0.3	756.02	1314
293.15 K, x2 = 0.4	748.67	1297
293.15 K, x2 = 0.5	740.14	1277
293.15 K, x2 = 0.6	729.79	1254
293.15 K, x2 = 0.7	717.46	1228
293.15 K, x2 = 0.8	702.3	1196
293.15 K, x2 = 0.9	683.23	1151
298.15 K, x2 = 0.1	764.7	1322
298.15 K, x2 = 0.2	758.88	1308
298.15 K, x2 = 0.3	752.56	1295
298.15 K, x2 = 0.4	745.03	1277
298.15 K, x2 = 0.5	736.52	1257
298.15 K, x2 = 0.6	726.08	1234
298.15 K, x2 = 0.7	713.68	1207
298.15 K, x2 = 0.8	698.4	1175
298.15 K, x2 = 0.9	679.04	1129
303.15 K, x2 = 0.1	761.25	1304
303.15 K, x2 = 0.2	755.4	1289
303.15 K, x2 = 0.3	749.09	1275
303.15 K, x2 = 0.4	741.49	1258
303.15 K, x2 = 0.5	732.9	1237
303.15 K, x2 = 0.6	722.32	1215
303.15 K, x2 = 0.7	709.86	1187
303.15 K, x2 = 0.8	694.47	1154
303.15 K, x2 = 0.9	674.8	1108
308.15 K, x2 = 0.1	757.78	1285
308.15 K, x2 = 0.2	751.9	1270
308.15 K, x2 = 0.3	745.61	1256
308.15 K, x2 = 0.4	737.93	1238
308.15 K, x2 = 0.5	729.25	1217
308.15 K, x2 = 0.6	718.63	1195
308.15 K, x2 = 0.7	706.03	1167
308.15 K, x2 = 0.8	690.5	1133
308.15 K, x2 = 0.9	670.53	1086
313.15 K, x2 = 0.1	754.31	1266
313.15 K, x2 = 0.2	748.41	1251
313.15 K, x2 = 0.3	741.92	1237
313.15 K, x2 = 0.4	734.37	1219
313.15 K, x2 = 0.5	725.59	1198
313.15 K, x2 = 0.6	714.88	1175
313.15 K, x2 = 0.7	702.18	1146
313.15 K, x2 = 0.8	686.49	1112
313.15 K, x2 = 0.9	666.22	1065
318.15 K, x2 = 0.1	750.84	1248
318.15 K, x2 = 0.2	744.91	1232
318.15 K, x2 = 0.3	738.42	1219
318.15 K, x2 = 0.4	730.8	1200
318.15 K, x2 = 0.5	721.92	1178
318.15 K, x2 = 0.6	711.12	1156
318.15 K, x2 = 0.7	698.3	1126
318.15 K, x2 = 0.8	682.45	1091
318.15 K, x2 = 0.9	661.87	1044
323.15 K, x2 = 0.1	747.36	1230
323.15 K, x2 = 0.2	741.4	1214
323.15 K, x2 = 0.3	734.92	1200
323.15 K, x2 = 0.4	727.21	1181
323.15 K, x2 = 0.5	718.23	1159
323.15 K, x2 = 0.6	707.34	1136
323.15 K, x2 = 0.7	694.38	1107
323.15 K, x2 = 0.8	678.36	1071
323.15 K, x2 = 0.9	657.47	1023
328.15 K, x2 = 0.1	743.88	1211
328.15 K, x2 = 0.2	737.89	1196
328.15 K, x2 = 0.3	731.41	1182
328.15 K, x2 = 0.4	723.62	1163
328.15 K, x2 = 0.5	714.52	1140
328.15 K, x2 = 0.6	703.55	1117
328.15 K, x2 = 0.7	690.44	1087
328.15 K, x2 = 0.8	674.25	1050
328.15 K, x2 = 0.9	653.04	1002
333.15 K, x2 = 0.1	740.37	1193
333.15 K, x2 = 0.2	734.36	1177
333.15 K, x2 = 0.3	727.88	1163
333.15 K, x2 = 0.4	720.01	1144
333.15 K, x2 = 0.5	710.8	1122
333.15 K, x2 = 0.6	699.74	1098
333.15 K, x2 = 0.7	686.47	1067
333.15 K, x2 = 0.8	670.09	1030
333.15 K, x2 = 0.9	648.56	981
338.15 K, x2 = 0.1	–	1176
338.15 K, x2 = 0.2	–	1160
338.15 K, x2 = 0.3	–	1145
338.15 K, x2 = 0.4	–	1126
338.15 K, x2 = 0.5	–	1103
338.15 K, x2 = 0.6	–	1079
338.15 K, x2 = 0.7	–	1048
338.15 K, x2 = 0.8	–	1010
338.15 K, x2 = 0.9	–	960
343.15 K, x2 = 0.1	–	1158
343.15 K, x2 = 0.2	–	1142
343.15 K, x2 = 0.3	–	1127
343.15 K, x2 = 0.4	–	1108
343.15 K, x2 = 0.5	–	1084
343.15 K, x2 = 0.6	–	1060
343.15 K, x2 = 0.7	–	1029
343.15 K, x2 = 0.8	–	990
343.15 K, x2 = 0.9	–	939
348.15 K, x2 = 0.1	–	1140
348.15 K, x2 = 0.2	–	1124
348.15 K, x2 = 0.3	–	1109
348.15 K, x2 = 0.4	–	1089
348.15 K, x2 = 0.5	–	1066
348.15 K, x2 = 0.6	–	1042
348.15 K, x2 = 0.7	–	1010
348.15 K, x2 = 0.8	–	971
348.15 K, x2 = 0.9	–	918
353.15 K, x2 = 0.1	–	1123
353.15 K, x2 = 0.2	–	1106
353.15 K, x2 = 0.3	–	1092
353.15 K, x2 = 0.4	–	1072
353.15 K, x2 = 0.5	–	1048
353.15 K, x2 = 0.6	–	1023
353.15 K, x2 = 0.7	–	991
353.15 K, x2 = 0.8	–	951
353.15 K, x2 = 0.9	–	898
358.15 K, x2 = 0.1	–	1106
358.15 K, x2 = 0.2	–	1089
358.15 K, x2 = 0.3	–	1074
358.15 K, x2 = 0.4	–	1054
358.15 K, x2 = 0.5	–	1030
358.15 K, x2 = 0.6	–	1005
358.15 K, x2 = 0.7	–	972
358.15 K, x2 = 0.8	–	932
358.15 K, x2 = 0.9	–	877
363.15 K, x2 = 0.1	–	1088
363.15 K, x2 = 0.2	–	1071
363.15 K, x2 = 0.3	–	1057
363.15 K, x2 = 0.4	–	1036
363.15 K, x2 = 0.5	–	1012
363.15 K, x2 = 0.6	–	986
363.15 K, x2 = 0.7	–	953
363.15 K, x2 = 0.8	–	912
363.15 K, x2 = 0.9	–	857
368.15 K, x2 = 0.1	–	1072
368.15 K, x2 = 0.2	–	1054
368.15 K, x2 = 0.3	–	1039
368.15 K, x2 = 0.4	–	1019
368.15 K, x2 = 0.5	–	995
368.15 K, x2 = 0.6	–	968
368.15 K, x2 = 0.7	–	935
368.15 K, x2 = 0.8	–	893
368.15 K, x2 = 0.9	–	837
373.15 K, x2 = 0.1	–	1055
373.15 K, x2 = 0.2	–	1037
373.15 K, x2 = 0.3	–	1022
373.15 K, x2 = 0.4	–	1002
373.15 K, x2 = 0.5	–	977
373.15 K, x2 = 0.6	–	950
373.15 K, x2 = 0.7	–	916
373.15 K, x2 = 0.8	–	874
373.15 K, x2 = 0.9	–	816

From the NIST ThermoML archive (doi:10.1021/je050060q)
